The source of these data is US20090082337A1, “Compositions Comprising Quinolone and Methods for Treating or Controlling Infections” (priority 2007, published 2009).

Test in all cases: In vitro anti-bacterial activity (MIC90), ophthalmologic clinical bacteria isolates
Common to all, as to assay type: cell-based

One assay deals with Moraxella species. The conditions noted are these: Gram-negative.
For a further assay, the system named is Pseudomonas aeruginosa. As to conditions: Gram-negative.
Another assay relates to Haemophilus influenzae. As to conditions: Gram-negative.
The subject of another assay is Staphylococcus aureus. The conditions noted are these: Gram-positive.
Assay [1] relates to Coagulase-negative Staphylococcus. As to conditions: Gram-positive.
In a further assay the test system is Streptococcus pneumoniae. As to conditions: Gram-positive.
The next assay deals with Corynebacterium species. The conditions noted are these: Gram-positive. An excerpt:
As disclosed above, most of these bacteria strains are also relevant to infections of the ear and upper respiratory tract.

The next assay deals with Propionibacterium acnes. As to conditions: Cutibacterium acnes, Gram-positive.
For assay [2], the system named is Ofloxacin-resistant Staphylococcus aureus. As to conditions: antibiotic-resistant organisms.
Assay [3] has as its system Gentamycin-resistant Staphylococcus aureus. As to conditions: antibiotic-resistant organisms.
Assay [4] relates to Gentamycin-resistant Pseudomonas aeruginosa. As to conditions: antibiotic-resistant organisms.
Assay [5] has as its system Penicillin-resistant Streptococcus pneumoniae. The conditions noted are these: antibiotic-resistant organisms.

The structures appear in SMILES notation. Converted amounts (≈) assume the structure as drawn.

`CCn1cc(C(=O)O)c(=O)c2cc(F)c(N3CCNCC3)cc21` [Norfloxacin]: the MIC90 in the assay on Moraxella species was 0.25 µg/mL (≈ 0.783 µM); against Pseudomonas aeruginosa it was 4 µg/mL (≈ 12.5 µM); against Haemophilus influenzae it was ≤ 0.06 µg/mL; with Staphylococcus aureus it was > 128 µg/mL; in assay [1] it was 128 µg/mL (≈ 401 µM); in the assay with Streptococcus pneumoniae, 8 µg/mL (≈ 25.1 µM). Also, the MIC90 with Corynebacterium species is 16 µg/mL (≈ 50.1 µM); against Propionibacterium acnes, 4 µg/mL (≈ 12.5 µM); in assay [2] it was > 128 µg/mL; in [3], 128 µg/mL (≈ 401 µM); in assay [4] it was 128 µg/mL (≈ 401 µM); in [5], 8 µg/mL (≈ 25.1 µM).
